From patent publication US12077503B2, “Substituted cyclic amides and their use as herbicides” (FMC CORPORATION, priority 2015, dated 2024)

Assays:
Format in all cases: in vivo
Kochia (Kochia scoparia) [1] = assay: Test A preemergence; conditions: Preemergence; for Plant response rating, Kochia: 125 g ai/ha, visual injury after approximately 10 d, 0 to 100 scale where 0 is no effect and 100 is complete control; for Kochia plant response rating (0 to 100 scale, 0 is no effect, 100 is complete control): 500 g ai/ha, visual injury approx. 10 d
Text: (§1) Seeds of plant species selected from barnyardgrass (Echinochloa crus-galli), Kochia (Kochia scoparia), ragweed (common ragweed, Ambrosia elatior), ryegrass, Italian (Italian ryegrass, Lolium multiflorum), crabgrass, large (Digitaria sanguinalis), giant foxtail (Setaria faberii), green foxtail (Setaria viridis), morningglory (Ipomoea spp.), pigweed (Amaranthus retroflexus), velvetleaf (Abutilon theophrasti), wheat (Triticum aestivum), and corn (Zea mays) were planted into a blend of loam soil and sand and treated preemergence with a directed soil spray using test chemicals formulated in anon-phytotoxic solvent mixture which included a surfactant.
(§2) At the same time, plants selected from these crop and weed species and also blackgrass (Alopecurus myosuroides), and Galium (catchweed bedstraw, Galium aparine) were planted in pots containing the same blend of loam soil and sand and treated with postemergence applications of test chemicals formulated in the same manner. Plants ranged in height from 2 to 10 cm and were in the one- to two-leaf stage for the postemergence treatment. Treated plants and untreated controls were maintained in a greenhouse for approximately 10 d, after which time all treated plants were compared to untreated controls and visually evaluated for injury. Plant response ratings, summarized in Table A, are based on a 0 to 100 scale where 0 is no effect and 100 is complete control. A dash (-) response means no test result.

[2] = test system: barnyardgrass (Echinochloa crus-galli); assay: Test A preemergence; conditions: Preemergence; for Plant response rating, Barnyardgrass: 125 g ai/ha, visual injury after approximately 10 d, 0 to 100 scale where 0 is no effect and 100 is complete control; for Barnyardgrass plant response rating (0 to 100 scale, 0 is no effect, 100 is complete control): 500 g ai/ha, visual injury approx. 10 d
Text: as §1, §2

[3] = test system: giant foxtail (Setaria faberii); assay: Test A preemergence; conditions: Preemergence; for Plant response rating, Foxtail, Giant: 125 g ai/ha, visual injury after approximately 10 d, 0 to 100 scale where 0 is no effect and 100 is complete control; for Foxtail, Giant plant response rating (0 to 100 scale, 0 is no effect, 100 is complete control): 500 g ai/ha, visual injury approx. 10 d
Text: as §1, §2

[4] = test system: pigweed (Amaranthus retroflexus); assay: Test A preemergence; conditions: Preemergence; for Plant response rating, Pigweed: 125 g ai/ha, visual injury after approximately 10 d, 0 to 100 scale where 0 is no effect and 100 is complete control; for Pigweed plant response rating (0 to 100 scale, 0 is no effect, 100 is complete control): 500 g ai/ha, visual injury approx. 10 d
Text: as §1, §2

[5] = test system: ragweed (common ragweed, Ambrosia elatior); assay: Test A preemergence; conditions: Preemergence; for Plant response rating, Ragweed: 125 g ai/ha, visual injury after approximately 10 d, 0 to 100 scale where 0 is no effect and 100 is complete control; for Ragweed plant response rating (0 to 100 scale, 0 is no effect, 100 is complete control): 500 g ai/ha, visual injury approx. 10 d
Text: as §1, §2

[6] = test system: ryegrass, Italian (Italian ryegrass, Lolium multiflorum); assay: Test A preemergence; conditions: Preemergence; for Plant response rating, Ryegrass, Italian: 125 g ai/ha, visual injury after approximately 10 d, 0 to 100 scale where 0 is no effect and 100 is complete control; for Ryegrass, Italian plant response rating (0 to 100 scale, 0 is no effect, 100 is complete control): 500 g ai/ha, visual injury approx. 10 d
Text: as §1, §2

[7] = test system: Galium (catchweed bedstraw, Galium aparine); assay: Test A postemergence
Text: as §1, §2

Kochia (Kochia scoparia) [8] = assay: Test A postemergence
Text: as §1, §2

[9] = test system: barnyardgrass (Echinochloa crus-galli); assay: Test A postemergence; conditions: for Barnyardgrass plant response rating: 125 g ai/ha, postemergence, visual injury rating on 0 to 100 scale (0 no effect, 100 complete control), approx. 10 d; for Plant response rating, Barnyardgrass: Postemergence, 500 g ai/ha, 0 to 100 scale where 0 is no effect and 100 is complete control
Text: as §1, §2

[10] = test system: blackgrass (Alopecurus myosuroides); assay: Test A postemergence; conditions: for Blackgrass plant response rating: 125 g ai/ha, postemergence, visual injury rating on 0 to 100 scale (0 no effect, 100 complete control), approx. 10 d; for Plant response rating, Blackgrass: Postemergence, 500 g ai/ha, 0 to 100 scale where 0 is no effect and 100 is complete control
Text: as §1, §2

corn (Zea mays) = assay: Test A postemergence
Text: as §1, §2

[11] = test system: giant foxtail (Setaria faberii); assay: Test A postemergence
Text: as §1, §2

[12] = test system: pigweed (Amaranthus retroflexus); assay: Test A postemergence
Text: as §1, §2

[13] = test system: ragweed (common ragweed, Ambrosia elatior); assay: Test A postemergence
Text: as §1, §2

[14] = test system: ryegrass, Italian (Italian ryegrass, Lolium multiflorum); assay: Test A postemergence
Text: as §1, §2

[15] = test system: wheat (Triticum aestivum); assay: Test A postemergence
Text: as §1, §2

[16] = 125 g ai/ha, postemergence, visual injury rating on 0 to 100 scale (0 no effect, 100 complete control), approx. 10 d
[17] = Postemergence, 500 g ai/ha, 0 to 100 scale where 0 is no effect and 100 is complete control
[18] = 125 g ai/ha, postemergence, visual rating after approx. 10 d, 0 to 100 scale (0 no effect, 100 complete control)

SMILES	Plant response rating, Kochia (Kochia (Kochia scoparia) [1])	Kochia plant response rating (0 to 100 scale, 0 is no effect, 100 is complete control) (Kochia (Kochia scoparia) [1])	Plant response rating, Barnyardgrass [2]	Barnyardgrass plant response rating (0 to 100 scale, 0 is no effect, 100 is complete control) [2]	Plant response rating, Foxtail, Giant [3]	Foxtail, Giant plant response rating (0 to 100 scale, 0 is no effect, 100 is complete control) [3]	Plant response rating, Pigweed [4]	Pigweed plant response rating (0 to 100 scale, 0 is no effect, 100 is complete control) [4]	Plant response rating, Ragweed [5]	Ragweed plant response rating (0 to 100 scale, 0 is no effect, 100 is complete control) [5]	Plant response rating, Ryegrass, Italian [6]	Ryegrass, Italian plant response rating (0 to 100 scale, 0 is no effect, 100 is complete control) [6]	Plant response rating, Galium [7, 17]	Plant response rating, Kochia (Kochia (Kochia scoparia) [8]; [17])	Barnyardgrass plant response rating [9]	Plant response rating, Barnyardgrass [9]	Blackgrass plant response rating [10]	Plant response rating, Blackgrass [10]	Plant response rating, Corn (corn (Zea mays); [17])	Plant response rating, Foxtail, Giant [11, 17]	further results
O=C(Nc1ccccc1F)C1C(=O)N(C2C=CCCC2)CC1c1cccc(C(F)(F)F)c1 (stereo not drawn) [Compound 524]	0	0	20	40	40	70	0	0	0	0	0	0	0	0	30	70	0	20	0	70	Galium plant response rating [7, 16]: 0; Kochia plant response rating (Kochia (Kochia scoparia) [8]; [16]): 0; Corn plant response rating (corn (Zea mays); [16]): 0; Foxtail, Giant plant response rating [11, 16]: 30; Pigweed plant response rating [12, 16]: 0; Plant response rating, Pigweed [12, 17]: 0; Ragweed plant response rating [13, 16]: 0; Plant response rating, Ragweed [13, 17]: 0; Ryegrass, Italian plant response rating [14, 16]: 0; Plant response rating, Ryegrass, Italian [14, 17]: 0; Wheat plant response rating [15, 16]: 0; Plant response rating, Wheat [15, 17]: 0
O=C(Nc1ccccc1F)C1C(=O)N(CC=CBr)CC1c1cccc(C(F)(F)F)c1 (stereo not drawn) [Compound 526]	0	0	0	20	70	80	0	0	0	0	0	0	0	0	10	20	0	0	0	40	Plant response rating, Galium [7, 18]: 0; Plant response rating, Kochia (Kochia (Kochia scoparia) [8]; [18]): 0; Plant response rating, Corn (corn (Zea mays); [18]): 0; Plant response rating, Foxtail, Giant [11, 18]: 20; Plant response rating, Pigweed [12, 18]: 0; Plant response rating, Pigweed [12, 17]: 0; Plant response rating, Ragweed [13, 18]: 0; Plant response rating, Ragweed [13, 17]: 0; Plant response rating, Ryegrass, Italian [14, 18]: 0; Plant response rating, Ryegrass, Italian [14, 17]: 0; Plant response rating, Wheat [15, 18]: 0; Plant response rating, Wheat [15, 17]: 0
O=C(Nc1cccc(F)c1F)C1C(=O)N(CC=CBr)CC1c1cccc(C(F)(F)F)c1 (stereo not drawn) [Compound 527]	0	0	0	20	80	80	0	0	0	0	0	0	0	0	0	20	0	0	0	20	Plant response rating, Galium [7, 18]: 0; Plant response rating, Kochia (Kochia (Kochia scoparia) [8]; [18]): 0; Plant response rating, Corn (corn (Zea mays); [18]): 0; Plant response rating, Foxtail, Giant [11, 18]: 0; Plant response rating, Pigweed [12, 18]: 0; Plant response rating, Pigweed [12, 17]: 0; Plant response rating, Ragweed [13, 18]: 0; Plant response rating, Ragweed [13, 17]: 0; Plant response rating, Ryegrass, Italian [14, 18]: 0; Plant response rating, Ryegrass, Italian [14, 17]: 0; Plant response rating, Wheat [15, 18]: 0; Plant response rating, Wheat [15, 17]: 0
